{"source": "patent US4602927A", "about": "“4-alkylimidazole derivatives and their use as nitrification inhibitors” (BASF Aktiengesellschaft, priority 1983, dated 1986)", "test_system": "nitrification", "test": "% inhibition of nitrification in soil (ammonium sulfate remaining in loamy sandy soil, Nessler reagent, 420 nm)", "conditions": "1 ppm based on moist soil, 50% of maximum water capacity, 28 days at 21° C., 220 mg ammonium sulfate per 200 g soil, versus untreated soil", "description": "220 mg of ammonium sulfate were mixed thoroughly with 200 g of a loamy sandy soil whose moisture content had been brought to 50% of the maximum water capacity. The active ingredients, dissolved in 0.2 ml of acetone, were then added in amounts of 1 ppm, based on moist soil. After careful, thorough mixing, and evaporation of the acetone, the soil samples were incubated for 28 days at 21° C., together with the controls without added active ingredient, 1 liter glass vessels covered with aluminum foil to avoid loss of water.\n2.5 g of each of the soil samples were then introduced into 100 ml conical flasks, and 22.5 ml of a 0.1N sodium sulfate solution was added. The flask was shaken for 30 minutes, after which the mixture was filtered, and 2.5 ml samples of the soil extracts were mixed with […] of distilled water. To detect the ammonium ions still present in the soil extract, 1.25 ml of Nessler reagent were then added, and the mixture was shaken thoroughly. The color changes were then measured photometrically at a wavelength of 420 nm. The amounts of ammonium sulfate still present in the soil samples were then determined with reference to standard curves obtained by a measurement of solutions containing known amounts of ammonium sulfate. The percentage inhibition of nitrification in the treated soil samples compared with the untreated soil samples (to which only ammonium sulfate had been added) was calculated using the following formula: [formula] a=nitrification rate for ammonium sulfate b=nitrification rate for ammonium sulfate+nitrification inhibitor", "data": [{"smiles": "Cc1ccn(C(=O)NOc2ccccc2)n1", "note": "[A, 1-phenoxycarbamyl-3-methylpyrazole, reference compound]", "values": [{"measurement": "% inhibition of nitrification 4 weeks after the addition of 1 ppm of active ingredient to the soil", "result": 69, "unit": "%"}]}, {"smiles": "Cc1ncn(C(=O)Nc2ccc(Cl)c(Cl)c2)c1Cl", "note": "[Example 4, 1-N-(3,4-dichlorophenyl)-carbamyl-4-methyl-5-chloroimidazole]", "values": [{"measurement": "% inhibition of nitrification 4 weeks after the addition of 1 ppm of active ingredient to the soil", "result": 71, "unit": "%"}]}, {"smiles": "CNC(=O)n1cnc(C)c1Cl", "note": "[Example 1, 1-N-methylcarbamyl-4-methyl-5-chloroimidazole]", "values": [{"measurement": "% inhibition of nitrification 4 weeks after the addition of 1 ppm of active ingredient to the soil", "result": 94, "unit": "%"}]}, {"smiles": "Cc1ncn(C(=O)Nc2ccccc2)c1Cl", "note": "[Example 3, 1-N-phenylcarbamyl-4-methyl-5-chloroimidazole]", "values": [{"measurement": "% inhibition of nitrification 4 weeks after the addition of 1 ppm of active ingredient to the soil", "result": 85, "unit": "%"}]}]}
